The assay has as its system Candida albicans. Briefly: in vitro suspension test representing in-use conditions. The format is cell-based. As to conditions: 5 min. The protocol:
The synergistic activity of the cleanser formulation was assessed using an in vitro suspension test representing in-use conditions. In-use conditions represent the actual consumer use of the cleanser (e.g., dissolved tablet concentrations, temperature, and contact time) versus Candida albicans as a relevant oral organism for the denture wearer. To 150 mL of 40° C. water at time zero, the denture cleanser was added, followed by 2 mL of a 10^8 cfu/mL test suspension. After 5 minutes, an aliquot of the solution was removed, neutralized and plated in order to evaluate the amount or log reduction of the test organism.

From patent publication US20110220154A1, “Dental Appliance Cleanser” (priority 2008, published 2011) come the findings set out here.

With `[H]/N=C(\N/C(=N/[H])NCCCCCCNC(=N)NC(=N)Nc1ccc(Cl)cc1)Nc1ccc(Cl)cc1` [Test Formulation 4, 1,6-di-4′-chlorophenyldiguanidohexane], the antimicrobial activity result was “does not demonstrate any antimicrobial activity”.
